These results are taken from ChEMBL document CHEMBL1201862, “PubChem BioAssay data set” (2004).

By AC50 is commonly meant the concentration giving half of the maximal activity seen. Broadly, the CC50 is the concentration that lowers cell viability or growth by half. The EC50 is the concentration that produces a half-maximal response.

The target in assay [1] is Bifunctional protein GlmU (Mycobacterium tuberculosis, UniProt P9WMN3). The assay can be described thus: Inhibitors of Mycobacterial Glucosamine-1-phosphate acetyl transferase (GlmU). Secondary screen. The arrangement: species or system Mycobacterium tuberculosis H37Rv.
The next assay concerns the target Genome polyprotein (dengue virus type 2, UniProt P29990). The assay is described as follows: Dengue-2 NS5 methyltransferase inhibitors, primary screen, biochemical, confirmation dose response (AID 588689). Format: functional.
The target of assay [2] is T1, Carboxy-terminal domain RNA polymerase II polypeptide A small phosphatase 1 (Homo sapiens, UniProt Q9GZU7).
T1 sequence (Q9GZU7 whole entry): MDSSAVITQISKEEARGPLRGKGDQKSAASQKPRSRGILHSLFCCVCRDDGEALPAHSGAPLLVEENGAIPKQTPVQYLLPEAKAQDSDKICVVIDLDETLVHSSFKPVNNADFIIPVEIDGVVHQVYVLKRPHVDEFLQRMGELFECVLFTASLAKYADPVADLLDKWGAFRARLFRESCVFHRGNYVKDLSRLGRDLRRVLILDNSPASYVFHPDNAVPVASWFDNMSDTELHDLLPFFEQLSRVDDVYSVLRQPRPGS
The assay can be described thus: inhibitors of CTDSP1, concentration-response testing, biochemical assay, absorbance-based, actives from ultra-high-throughput screening (AID 540297). Format: functional.

Assay [3] addresses Tyrosine-protein phosphatase non-receptor type 11 (Homo sapiens, UniProt Q06124). The assay can be described thus: SHP2 phosphatase inhibition, dose response, selectivity assay for STEP inhibitor project, biochemical (AID 602367). Format: functional. Conditions: read-out: IC50_Mean.
Assay [4] addresses Tyrosine-protein phosphatase non-receptor type 5 (Homo sapiens, UniProt P54829). The assay is described as follows: STEP phosphatase inhibitors, confirmation, biochemical, fluorescence intensity, uHTS hits (AID 602372). Format: functional. Conditions: read-out: IC50_Mean.
The target of assay [5] is Dual specificity protein phosphatase 3 (Homo sapiens, UniProt P51452). The assay is described as follows: VHR phosphatase inhibition, dose response, selectivity assay for STEP inhibitor project, biochemical (AID 602374). Format: functional. Particulars: read-out: IC50_Mean.
The nature of assay [6]: M. tuberculosis growth inhibition, HTS (AID 449762). Format: functional.
Another assay has as its system Danio rerio. The assay is described as follows: In Vivo Angiogenesis Dose-Response Confirmation. [Related pubchem assays: 732 (Assay preceding this confirmatory assay.)]. Format: functional, organism-based.
A further assay concerns the target Keap1/Nrf2 (Homo sapiens, UniProt Q14145). The assay is described as follows: Keap1-Nrf2 protein-protein interaction inhibitors, dose response, biochemical, fluorescence polarization, cherry-picked samples (AID 588683). Background: Polarisation of emitted light reports the rotation of a fluorescent probe.
Assay [7] addresses Glutathione-S-transferase (Schistosoma japonicum, UniProt Q26513). The assay is described as follows: biotin-GST/anti-GST TR-FRET signal inhibitors, dose response, artefact control for Vif-APOBEC3G degradation inhibitor project, biochemical (AID 1117362). Format: functional. Background: TR-FRET usually uses a lanthanide donor and a delayed reading to cut background.
Assay [8] is described as follows: Vero cell cytotoxicity, dose response, cytotoxicity control for Vif-APOBEC3G degradation inhibitor project, Vero cells (AID 1117358). Particulars: Human immunodeficiency virus 1, Vero. Format: functional.
The target in the next assay is T2, Leucine aminopeptidase (Plasmodium falciparum 3D7, UniProt Q8IL11).
T2 sequence (Q8IL11 whole entry): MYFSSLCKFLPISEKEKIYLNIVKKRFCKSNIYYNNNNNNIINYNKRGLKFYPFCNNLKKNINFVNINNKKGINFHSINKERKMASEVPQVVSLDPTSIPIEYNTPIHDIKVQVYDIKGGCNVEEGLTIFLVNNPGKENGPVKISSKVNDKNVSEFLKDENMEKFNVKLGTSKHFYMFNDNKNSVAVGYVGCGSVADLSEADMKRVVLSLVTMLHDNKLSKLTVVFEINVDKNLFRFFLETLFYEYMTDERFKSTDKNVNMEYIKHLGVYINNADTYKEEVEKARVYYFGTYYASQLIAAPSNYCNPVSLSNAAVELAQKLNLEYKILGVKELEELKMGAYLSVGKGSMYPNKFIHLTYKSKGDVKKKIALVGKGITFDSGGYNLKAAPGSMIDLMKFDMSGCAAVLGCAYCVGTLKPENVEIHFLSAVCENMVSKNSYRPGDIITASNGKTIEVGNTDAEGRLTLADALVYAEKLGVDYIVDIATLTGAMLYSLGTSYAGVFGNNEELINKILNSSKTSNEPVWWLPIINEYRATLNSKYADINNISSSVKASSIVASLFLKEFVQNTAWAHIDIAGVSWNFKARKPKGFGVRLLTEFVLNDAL
The assay can be described thus: P. falciparum M17LAP inhibitors, primary screen, biochemical, fluorogenic H-Leu-NHMec substrate, 1536-well (AID 1619). In kind it is functional.

Assay [9] deals with Heat shock protein HSP 90-alpha (Homo sapiens, UniProt P07900). The assay is described as follows: Luminescence-based dose response biochemical high throughput screening assay for inhibitors of the Heat Shock Protein 90 (HSP90). [Related pubchem assays: 1831 (Summary AID.), 1846 (Confirmation screen.), 1789 (Primary screen.)].
A short description of assay [10]: Concentration-dependent survival of SW480 colon cancer line, luminescence detection with CellTiter-Glo, half-maximal inhibitory concentration (AID 1117338). In kind it is functional. (In general: Cellular ATP, detected with luciferase, serves as a proxy for viable cell number.)
The nature of assay [11]: RKO cell viability reduction, dose response, CellTiter-Glo luminescence (AID 1117322). Format: functional.
Assay [12] can be described thus: cytotoxicity toward HCT116 cells – cell-based, CellTiter-Glo luminescence, IC50, dose response (AID 1117332). Format: functional. Particulars: HCT-116.
The nature of assay [13]: SNU-C1 cell viability reduction, dose response, CellTiter-Glo luminescence (AID 1117323). In kind it is functional, cell-based.
Assay [14] can be described thus: cytotoxicity toward Colo320 cells – cell-based, CellTiter-Glo luminescence, IC50, dose response (AID 1117334). In kind it is functional. Conditions: COLO 320.
Assay [15] in a line: cytotoxicity toward HT-29 cells – cell-based, CellTiter-Glo luminescence, IC50, dose response (AID 1117330). In kind it is functional.
A short description of assay [16]: CellTiter-Glo luminescent dose response of DLD-1 viability loss (AID 1117352). Format: functional.
Assay [17] in a line: HCT116 cell viability decrease, GSK3B pretreatment – CellTiter-Glo, IC50, dose response (AID 1117339). In kind it is functional. Conditions: HCT-116.
The nature of assay [18]: P. falciparum late gametocyte killing, dose response, luminescence (AID 1117278).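 Further: gametocytes exposed to compound for 24 hours.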 Format: functional, cell-based.
Assay [19] can be described thus: Jurkat T cell cytotoxicity, dose response, cytotoxicity control for P. falciparum gametocyte viability project, luminescence (AID 1117277).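 Further: potency reflects loss of cellular ATP meaning fewer viable cells.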 Format: functional, cell-based.
Assay [20] is described as follows: Mtb BioA inhibitors by displacement, dose response, biochemical, coupled fluorescence displacement, 20-point, dry powder (AID 743357). In kind it is functional.
Assay [21] can be described thus: P. falciparum 3D7-ScDHODH growth inhibitors, dose response, SYBR Green, dry powder samples (AID 1159570).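 Further: parasite growth measured after 72 hours of compound exposure.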 Format: functional, cell-based.
Assay [22] is described as follows: P. falciparum Dd2 growth inhibitors, dose response, SYBR Green, cherry-picked samples (AID 1159567). In kind it is functional, cell-based.
Assay [23] can be described thus: P. falciparum Dd2 growth inhibitors, dose response, SYBR Green, dry powder samples (AID 1159566).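 Further: potency for growth inhibition with lower SYBR green DNA signal.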 In kind it is functional, cell-based.
The nature of assay [24]: HepG2 cell cytotoxicity, dose response, cytotoxicity control, cherry-picked samples (AID 1159577). Format: functional, cell-based.
A short description of assay [25]: P. falciparum ATP4 D1247Y mutant growth inhibitors, dose response, NITD609-resistant line, SYBR Green, dry powder (AID 1159571).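 Further: parasites synchronized at ring stage by sorbitol before testing.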 In kind it is functional, cell-based.
The target of assay [26] is G-protein coupled receptor 183 (Homo sapiens, UniProt P32249). The assay is described as follows: SAR confirmation of small molecule antagonists of the EBI2 receptor via a luminescent beta-arrestin assa. In kind it is functional.
The subject of assay [27] is Streptococcus sp. 'group A'. The assay is described as follows: growth inhibition of control SK(-) GAS strain, dose response, counter-screen for streptokinase expression inhibitor project, luminescence, kanamycin, BacTiterGlo, confirmation (AID 1900). Format: functional, organism-based.
In another assay the target is T3, Streptokinase A (Streptococcus pyogenes serotype M1, UniProt P10520).
T3 sequence (P10520 whole entry): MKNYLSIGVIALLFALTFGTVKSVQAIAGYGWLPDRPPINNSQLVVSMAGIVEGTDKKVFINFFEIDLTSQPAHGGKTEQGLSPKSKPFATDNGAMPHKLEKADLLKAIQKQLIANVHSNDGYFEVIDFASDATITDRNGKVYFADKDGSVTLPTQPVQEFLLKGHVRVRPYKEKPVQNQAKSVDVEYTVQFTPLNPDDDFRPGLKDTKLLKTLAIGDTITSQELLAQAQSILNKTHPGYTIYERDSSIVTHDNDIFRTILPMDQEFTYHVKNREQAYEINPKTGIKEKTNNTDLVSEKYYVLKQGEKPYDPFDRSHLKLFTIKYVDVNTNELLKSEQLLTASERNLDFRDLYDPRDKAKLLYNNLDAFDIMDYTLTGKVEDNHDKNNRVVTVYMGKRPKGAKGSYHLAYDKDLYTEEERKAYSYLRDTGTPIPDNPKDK
The assay is described as follows: S. pyogenes streptokinase expression inhibitors, potency, dose response, plasminogen activation absorbance, OD405 (AID 1914).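 Further: secreted streptokinase activity via plasminogen activation per viability signal from cell pellet.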 In kind it is functional, Streptococcus pyogenes M1 GAS.

For a further assay, the system named is Streptococcus. The assay is described as follows: Group A Streptococcus viability loss, dose response, counter-screen for streptokinase expression inhibitor project, luminescence, BacTiterGlo (AID 1915).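 Further: potency for reduction of bacterial viability or growth.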 Format: functional, organism-based.
Assay [28] can be described thus: Late stage results for the probe development effort to identify inhibitors of Plasmodium falciparum gametocytes: Luminescence-based cell-based high throughput dose response assay to identify inhibitors of viability of late stage Plasmodium falciparum gametocytes. Format: functional.
In assay [29] the target is Sphingosine 1-phosphate receptor 2 (Homo sapiens, UniProt O95136). The assay can be described thus: Dose Response Cell Based Assay for Agonists of the S1P2 Receptor. [Related pubchem assays: 729, 736, 843 ]. Format: functional.
Assay [30] addresses Lysine-specific demethylase 4C (Homo sapiens, UniProt Q9H3R0). The assay is described as follows: GASC-1 (JMJD2C) histone demethylase inhibitors, dose response, biochemical, DELFIA europium, cherry-picked samples (AID 488835). In kind it is functional.
The next assay addresses Transthyretin (Homo sapiens, UniProt P02766). The assay can be described thus: Luminescence-based cell-based high throughput dose response assay to identify activators of Transthyretin (TTR) transcription. In kind it is functional.

The source made the active and inactive calls.

G-protein coupled receptor 183, sequence (P32249 whole entry): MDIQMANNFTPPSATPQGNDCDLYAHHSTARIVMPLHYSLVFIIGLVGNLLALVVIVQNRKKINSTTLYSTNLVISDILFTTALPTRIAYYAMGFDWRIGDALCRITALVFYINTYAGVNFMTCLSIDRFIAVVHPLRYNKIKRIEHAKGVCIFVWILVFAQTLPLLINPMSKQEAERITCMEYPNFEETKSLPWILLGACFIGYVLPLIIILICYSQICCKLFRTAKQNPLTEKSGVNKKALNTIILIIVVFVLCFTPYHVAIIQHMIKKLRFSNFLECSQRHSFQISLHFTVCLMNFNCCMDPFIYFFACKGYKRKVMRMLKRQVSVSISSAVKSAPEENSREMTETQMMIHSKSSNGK
Sphingosine 1-phosphate receptor 2, sequence (O95136 whole entry): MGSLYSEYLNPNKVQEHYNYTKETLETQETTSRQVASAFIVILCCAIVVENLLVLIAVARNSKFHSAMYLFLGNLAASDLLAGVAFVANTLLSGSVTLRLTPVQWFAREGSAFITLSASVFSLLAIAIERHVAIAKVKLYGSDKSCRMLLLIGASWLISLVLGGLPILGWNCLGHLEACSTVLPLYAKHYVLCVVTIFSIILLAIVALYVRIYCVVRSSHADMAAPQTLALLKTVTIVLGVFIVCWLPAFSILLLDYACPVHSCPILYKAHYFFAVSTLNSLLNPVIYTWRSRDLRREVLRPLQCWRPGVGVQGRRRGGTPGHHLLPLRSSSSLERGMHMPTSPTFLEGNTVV
Lysine-specific demethylase 4C, sequence (Q9H3R0 whole entry): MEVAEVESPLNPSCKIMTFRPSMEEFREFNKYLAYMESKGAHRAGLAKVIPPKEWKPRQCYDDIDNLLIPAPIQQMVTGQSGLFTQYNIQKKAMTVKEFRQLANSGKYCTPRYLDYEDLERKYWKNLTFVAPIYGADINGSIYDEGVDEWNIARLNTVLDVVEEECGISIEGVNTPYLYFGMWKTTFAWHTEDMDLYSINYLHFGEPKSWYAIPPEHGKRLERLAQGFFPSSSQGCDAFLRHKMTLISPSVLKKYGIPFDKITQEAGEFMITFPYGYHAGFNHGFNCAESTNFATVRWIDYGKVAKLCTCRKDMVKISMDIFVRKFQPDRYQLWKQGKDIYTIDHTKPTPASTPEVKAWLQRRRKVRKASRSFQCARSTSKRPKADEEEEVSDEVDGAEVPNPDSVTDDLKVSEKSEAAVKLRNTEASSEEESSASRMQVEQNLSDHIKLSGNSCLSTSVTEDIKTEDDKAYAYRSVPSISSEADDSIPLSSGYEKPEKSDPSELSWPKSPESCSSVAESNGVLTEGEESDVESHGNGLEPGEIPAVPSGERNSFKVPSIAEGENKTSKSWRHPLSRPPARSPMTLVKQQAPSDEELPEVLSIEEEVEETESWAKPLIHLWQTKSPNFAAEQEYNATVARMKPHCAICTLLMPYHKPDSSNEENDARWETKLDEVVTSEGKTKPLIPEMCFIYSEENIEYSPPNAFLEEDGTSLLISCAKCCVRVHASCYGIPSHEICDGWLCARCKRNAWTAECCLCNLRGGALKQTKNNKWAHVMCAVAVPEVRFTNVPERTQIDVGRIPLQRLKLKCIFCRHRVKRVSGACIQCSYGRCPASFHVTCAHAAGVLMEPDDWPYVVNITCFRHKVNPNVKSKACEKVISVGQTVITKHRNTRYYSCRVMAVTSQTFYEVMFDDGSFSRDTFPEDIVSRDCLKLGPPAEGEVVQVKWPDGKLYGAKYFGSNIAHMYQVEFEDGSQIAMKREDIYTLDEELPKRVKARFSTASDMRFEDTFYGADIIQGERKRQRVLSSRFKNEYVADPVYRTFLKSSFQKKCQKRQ
Bifunctional protein GlmU, sequence (P9WMN3 whole entry): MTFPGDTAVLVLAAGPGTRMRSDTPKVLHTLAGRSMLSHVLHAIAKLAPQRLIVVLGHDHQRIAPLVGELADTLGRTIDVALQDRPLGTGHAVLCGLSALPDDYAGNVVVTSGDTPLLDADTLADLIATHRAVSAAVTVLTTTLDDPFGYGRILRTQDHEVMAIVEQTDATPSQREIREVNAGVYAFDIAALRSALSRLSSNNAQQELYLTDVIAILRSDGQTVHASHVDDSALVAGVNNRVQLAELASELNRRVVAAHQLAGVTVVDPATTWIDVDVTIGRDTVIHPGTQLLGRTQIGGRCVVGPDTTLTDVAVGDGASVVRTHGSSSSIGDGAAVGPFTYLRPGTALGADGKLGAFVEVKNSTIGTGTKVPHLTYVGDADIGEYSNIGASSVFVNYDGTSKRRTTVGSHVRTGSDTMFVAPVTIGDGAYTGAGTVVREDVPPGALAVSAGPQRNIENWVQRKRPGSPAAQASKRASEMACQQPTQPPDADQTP
Dual specificity protein phosphatase 3, sequence (P51452 whole entry): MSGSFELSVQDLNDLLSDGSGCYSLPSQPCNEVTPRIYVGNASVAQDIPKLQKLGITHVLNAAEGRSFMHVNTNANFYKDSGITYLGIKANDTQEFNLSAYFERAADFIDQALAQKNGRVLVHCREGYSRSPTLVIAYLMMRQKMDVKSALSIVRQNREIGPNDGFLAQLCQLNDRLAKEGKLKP
Glutathione-S-transferase, sequence (Q26513 whole entry): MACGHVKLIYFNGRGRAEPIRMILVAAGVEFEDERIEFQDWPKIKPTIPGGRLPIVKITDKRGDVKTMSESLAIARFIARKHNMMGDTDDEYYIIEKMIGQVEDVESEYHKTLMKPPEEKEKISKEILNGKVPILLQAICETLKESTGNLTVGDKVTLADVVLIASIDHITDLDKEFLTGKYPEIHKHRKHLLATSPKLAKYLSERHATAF
Keap1/Nrf2, sequence (Q16236 whole entry): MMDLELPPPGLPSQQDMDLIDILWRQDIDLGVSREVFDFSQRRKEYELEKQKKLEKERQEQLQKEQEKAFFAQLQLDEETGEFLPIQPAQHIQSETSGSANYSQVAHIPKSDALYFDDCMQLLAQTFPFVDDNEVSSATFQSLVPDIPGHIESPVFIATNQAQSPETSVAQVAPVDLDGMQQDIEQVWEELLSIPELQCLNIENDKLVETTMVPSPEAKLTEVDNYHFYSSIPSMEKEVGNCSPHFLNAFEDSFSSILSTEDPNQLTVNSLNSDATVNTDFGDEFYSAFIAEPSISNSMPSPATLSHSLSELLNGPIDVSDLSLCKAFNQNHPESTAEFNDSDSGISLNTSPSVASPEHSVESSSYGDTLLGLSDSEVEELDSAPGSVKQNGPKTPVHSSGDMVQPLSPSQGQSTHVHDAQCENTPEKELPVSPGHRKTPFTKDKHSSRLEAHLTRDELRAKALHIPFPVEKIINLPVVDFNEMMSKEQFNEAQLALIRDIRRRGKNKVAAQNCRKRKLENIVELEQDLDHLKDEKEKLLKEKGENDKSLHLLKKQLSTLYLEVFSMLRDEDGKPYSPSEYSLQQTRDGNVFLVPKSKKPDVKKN
Keap1/Nrf2, sequence (Q14145 whole entry): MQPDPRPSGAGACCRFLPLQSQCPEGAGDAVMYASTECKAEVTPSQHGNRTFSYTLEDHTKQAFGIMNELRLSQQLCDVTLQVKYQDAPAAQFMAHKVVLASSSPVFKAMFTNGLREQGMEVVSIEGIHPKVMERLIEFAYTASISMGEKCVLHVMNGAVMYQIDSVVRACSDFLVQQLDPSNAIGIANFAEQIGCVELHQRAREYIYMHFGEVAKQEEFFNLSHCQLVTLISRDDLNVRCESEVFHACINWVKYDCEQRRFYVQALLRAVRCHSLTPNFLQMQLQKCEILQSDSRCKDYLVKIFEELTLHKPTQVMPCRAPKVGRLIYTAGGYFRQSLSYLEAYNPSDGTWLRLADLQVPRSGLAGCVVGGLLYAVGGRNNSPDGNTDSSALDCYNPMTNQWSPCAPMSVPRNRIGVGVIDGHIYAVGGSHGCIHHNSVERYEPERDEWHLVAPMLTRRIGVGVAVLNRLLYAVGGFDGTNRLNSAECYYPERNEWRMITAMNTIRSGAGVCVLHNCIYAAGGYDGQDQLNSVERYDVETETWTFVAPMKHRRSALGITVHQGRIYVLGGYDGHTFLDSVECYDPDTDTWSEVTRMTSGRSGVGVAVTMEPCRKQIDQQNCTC
Tyrosine-protein phosphatase non-receptor type 5, sequence (P54829 whole entry): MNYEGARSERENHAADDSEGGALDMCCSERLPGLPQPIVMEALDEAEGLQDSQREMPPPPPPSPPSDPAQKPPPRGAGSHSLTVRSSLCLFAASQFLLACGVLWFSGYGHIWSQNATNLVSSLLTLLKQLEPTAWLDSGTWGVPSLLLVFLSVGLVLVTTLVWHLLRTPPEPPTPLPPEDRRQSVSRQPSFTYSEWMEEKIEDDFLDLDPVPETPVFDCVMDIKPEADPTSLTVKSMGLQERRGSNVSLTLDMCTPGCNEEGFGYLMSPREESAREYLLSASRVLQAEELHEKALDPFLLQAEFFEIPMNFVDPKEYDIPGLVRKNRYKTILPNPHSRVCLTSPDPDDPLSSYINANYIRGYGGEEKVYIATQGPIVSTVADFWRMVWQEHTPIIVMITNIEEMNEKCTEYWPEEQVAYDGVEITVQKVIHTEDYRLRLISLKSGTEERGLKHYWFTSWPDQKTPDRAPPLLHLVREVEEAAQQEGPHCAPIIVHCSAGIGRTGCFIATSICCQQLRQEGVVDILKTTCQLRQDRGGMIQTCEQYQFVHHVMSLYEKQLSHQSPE

Consider `CCc1c(C)[nH]n(-c2ccc(Oc3ccccc3)c(S(=O)(=O)O)c2)c1=O`, for which the IC50 was 157 µM (active) in [1]; 84.5 µM (active) at Genome polyprotein; 4.83 µM (active) in assay [2]; 3.1 µM (active) in assay [3]; 58.8 µM (inactive) in assay [4]; 3.6 µM (active) in assay [5].

For the compound `CC(=O)N1C(Nc2ccc(Cl)cc2)CCN1c1ccccc1` (configuration not stated), the IC50 in [6] is > 100 µM (active).

Turning to `Cc1cccc2c1NC(=O)/C2=C1\Nc2ccc(Br)cc2\C1=N/O`, the IC50 in the assay with Danio rerio is 4.01 µM (not active).

Consider `COC(=O)C1=COC(C)C2CN3CCc4c([nH]c5ccccc45)C3CC12` (configuration not stated), for which the AC50 on Keap1/Nrf2 was > 52 µM (inactive). The IC50 in assay [7] was > 100 µM (active).

As to `O=C(Nc1cccc(Cl)c1)C1=Cc2cc(Cl)ccc2OC1`, the CC50 in [8] was > 40 µM (active).

Take `COc1cc(/C=N/Nc2ccc(Cl)c(C(=O)O)c2)ccc1OC(=O)c1ccco1`: the IC50 was 48.8 µM (active) on Leucine aminopeptidase and 0.792 µM (active) in assay [9].

In the case of `C=CCCCCCCCCC(=O)OC`, the IC50 in assay [10], in assay [11], in [12], in assay [13], in assay [14] and in assay [15] was > 20 µM (inactive) in each case. The IC50 in assay [16] and in assay [17] was > 20 µM (inactive) throughout.

In the case of `CC(C)OC(=O)c1c(NC(=O)c2ccco2)sc2c1CCCC2`, the values for the IC50 in [18] and in assay [19] were > 109 µM (inactive) and > 83.2 µM (inactive), respectively.

Take `COc1cc2c(cc1C(=O)N1CCN(c3ccc(C(C)=O)cc3)CC1)OCO2`: the AC50 in assay [20] was 13.7 µM (active).

For the compound `C[C@H](CO)N1C[C@H](C)[C@@H](CN(C)CC2CC2)Oc2ccc(NC(=O)Nc3cccc4ccccc34)cc2CC1=O`, the AC50 in assay [21] was 2.09 µM (active); in assay [22], 2.93 µM (active); in assay [23] it was 1.72 µM (active); in assay [24], > 39 µM (inactive); in assay [25] it was 3.39 µM (active).

As for `O=C(/C=C/c1ccc(F)cc1)N1CCN(S(=O)(=O)c2ccc([N+](=O)[O-])cc2)CC1`, in assay [26], the IC50 is 0.0129 µM (active).

On to `O=C(NC1=NCCS1)c1cc(-c2ccccc2)nn1-c1ccccc1`, for which the values for the EC50 (in assay [27]; at Streptokinase A; with Streptococcus) were > 150 µM (not active), 34.2 µM (active) and > 150 µM (not active), respectively. Moreover, the IC50 in assay [28] was > 37.2 µM (inactive).

For the compound `NC(=O)c1ccc(NC(=O)C2CCCO2)cc1` (configuration not stated), the EC50 in assay [29] is reported as > 50 µM (not active).

On to `Cc1ccc(C2CC(c3ccccc3)=NN2C(S)=Nc2ccccc2)o1` (configuration not stated), for which, in [30], the AC50 was 20.5 µM (active). Moreover, the EC50 at Transthyretin is > 167 µM (inactive).
